Reference: US8071763B2, “Methods for treatment of nocturia” (Daiichi Sankyo Company, Limited, priority 2002, dated 2011)
Marks after values point to notes of the source that are not given here.

Test system: patients with nocturia
Test: Non-randomized trial treatment with loxoprofen in patients with nocturia; voids/night outcome assessed as excellent, improved, unchanged or worsened
Assay type: in vivo, human
Protocol: One hundred forty one patients (135 men) aged 49 to 89 (mean 70.5) years with LUTS and =2 voids per night were enrolled in the study. Their main diseases were BPH (n=93), prostate cancer (n=24) and neurogenic bladder (NB) (n=13); 11 had other diseases. […] Patients who had asthma, gastrointestinal disorders, renal dysfunction and allergies to loxoprofen were excluded. Patients took a single 60 mg loxoprofen tablet prior to sleeping at night for 4 to 14 days initially concurrently with their treatments for their main diseases. Numbers of voids/night as reported by each patient were evaluated and treatment outcome was assessed as either excellent (nocturia disappeared or decreased by =2 voids/night), improved (nocturia decreased by 1 void/night), unchanged or worsened (nocturia increased).

[1] = 60 mg prior to sleeping, 108 patients who did not respond to anticholinergic drugs
[2] = 60 mg prior to sleeping, Antidiuretic hormone non-responder, 3 patients
[3] = 60 mg prior to sleeping, Antidiuretic hormone responder, 6 patients
[4] = 60 mg prior to sleeping, BPH, 93 patients
[5] = 60 mg prior to sleeping, BPH, 93 patients, listed as Loxoprofen
[6] = 60 mg prior to sleeping, Female, 6
[7] = 60 mg prior to sleeping, Insomnia, 20 patients
[8] = 60 mg prior to sleeping, Male, 135
[9] = 60 mg prior to sleeping, Neurogenic bladder, 13 patients
[10] = 60 mg prior to sleeping, Neurogenic bladder, 13 patients, listed as Loxoprofen
[11] = 60 mg prior to sleeping, Nocturnal polyuria, 7 patients
[12] = 60 mg prior to sleeping, Post-TURP, 18 patients
[13] = 60 mg prior to sleeping, Post-thermotherapy, 19 patients
[14] = 60 mg prior to sleeping, Prostate cancer, 24 patients
[15] = 60 mg prior to sleeping, Prostate cancer, 24 patients, listed as Loxoprofen
[16] = 60 mg prior to sleeping, Prostate cancer, hormone therapy, 15 patients
[17] = 60 mg prior to sleeping, Prostate cancer, post-prostatectomy (radical), 5 patients
[18] = 60 mg prior to sleeping, Prostate cancer, post-radiation, 4 patients
[19] = 60 mg prior to sleeping, Prostatodynia, 5 patients
[20] = 60 mg prior to sleeping, Urinary frequency with UUI, 10 patients
[21] = 60 mg prior to sleeping, Urinary frequency without UUI, 9 patients
[22] = 60 mg prior to sleeping, aged 49 to 59 years
[23] = 60 mg prior to sleeping, aged 60 to 69 years
[24] = 60 mg prior to sleeping, aged 70 to 79 years
[25] = 60 mg prior to sleeping, aged 80 to 86 years
[26] = 60 mg prior to sleeping, frequency at baseline 2 and 2-3, 56 patients
[27] = 60 mg prior to sleeping, frequency at baseline 3-4, 59 patients
[28] = 60 mg prior to sleeping, frequency at baseline 4-5, 15 patients
[29] = 60 mg prior to sleeping, frequency at baseline >5, 11 patients
[30] = 60 mg prior to sleeping, non-responders to Anticholinergics, 32 patients
[31] = 60 mg prior to sleeping, non-responders to Hypnotics, 42 patients
[32] = 60 mg prior to sleeping, non-responders to TCA (tricyclic antidepressants), 76 patients

SMILES: CC(C(=O)O)c1ccc(CC2CCCC2=O)cc1 (centres unmarked) [loxoprofen, loxoprofen sodium]
- Onset of changes in patients' symptoms (60 mg prior to sleeping): starting from the first night of therapy
- Excellent responder rate (60 mg prior to sleeping, 85 patients with more frequent nocturia than 2 to 3 episodes at baseline): 46%
- Excellent rate [1]: 44%
- Improved rate [1]: 38%
- Nocturia improved or disappeared, % of patients overall (60 mg prior to sleeping, 141 patients): 72%
- Improved, % of patients [2]: (33%)
- Improved, no. of patients [2]: 1
- Unchanged, % of patients [2]: 67%
- Unchanged, no. of patients [2]: 2
- Excellent, % of patients [3]: (17%)
- Excellent, no. of patients [3]: 1
- Improved, % of patients [3]: (67%)
- Improved, no. of patients [3]: 4
- Unchanged, % of patients [3]: 17%
- Unchanged, no. of patients [3]: 1
- Excellent, % of patients [4]: (39%)
- Excellent, no. of patients [4]: 36^
- Improved, % of patients [4]: (34%)
- Improved, no. of patients [4]: 32^
- Unchanged, % of patients [4]: (23%)
- Unchanged, no. of patients [4]: 21^
- Worsened, % of patients [4]: (4%)
- Worsened, no. of patients [4]: 4
- Excellent, % of patients [5]: 39%
- Improved, % of patients [5]: 34%
- Excellent, % of patients [6]: (33%)
- Excellent, no. of patients [6]: 2
- Improved, % of patients [6]: (33%)
- Improved, no. of patients [6]: 2
- Unchanged, % of patients [6]: (33%)
- Unchanged, no. of patients [6]: 2
- Excellent, % of patients [7]: (35%)
- Excellent, no. of patients [7]: 7^
- Improved, % of patients [7]: (40%)
- Improved, no. of patients [7]: 8^
- Unchanged, % of patients [7]: (20%)
- Unchanged, no. of patients [7]: 4^
- Worsened, % of patients [7]: (5%)
- Worsened, no. of patients [7]: 1
- Excellent, % of patients (60 mg prior to sleeping, Insomnia, 20 patients, listed as Loxoprofen): 35%
- Excellent, no. of patients (60 mg prior to sleeping, Interstitial cystitis, 2 patients): 2^¶
- Excellent, % of patients [8]: (36%)
- Excellent, no. of patients [8]: 49
- Improved, % of patients [8]: (36%)
- Improved, no. of patients [8]: 48
- Unchanged, % of patients [8]: (24%)
- Unchanged, no. of patients [8]: 32
- Worsened, % of patients [8]: (4%)
- Worsened, no. of patients [8]: 6
- Excellent, % of patients [9]: (69%)
- Excellent, no. of patients [9]: 9^‡
- Improved, % of patients [9]: (8%)
- Improved, no. of patients [9]: 1^¶
- Unchanged, % of patients [9]: (15%)
- Unchanged, no. of patients [9]: 2^¶
- Worsened, % of patients [9]: (8%)
- Worsened, no. of patients [9]: 1
- Excellent, % of patients [10]: 69%
- Improved, % of patients [10]: 8%
- Excellent, % of patients [11]: (14%)
- Excellent, no. of patients [11]: 1^
- Improved, % of patients [11]: (71%)
- Improved, no. of patients [11]: 5^
- Unchanged, % of patients [11]: (14%)
- Unchanged, no. of patients [11]: 1^
- Excellent, % of patients (60 mg prior to sleeping, Nocturnal polyuria, 7 patients, listed as Loxoprofen): 14%
- Excellent, no. of patients [12]: 8
- Improved, % of patients [12]: (27%)
- Improved, no. of patients [12]: 5
- Unchanged, % of patients [12]: 22%
- Unchanged, no. of patients [12]: 4
- Worsened, % of patients [12]: 6%
- Worsened, no. of patients [12]: 1
- Excellent, no. of patients [13]: 8
- Improved, % of patients [13]: (26%)
- Improved, no. of patients [13]: 5
- Unchanged, % of patients [13]: 32%
- Unchanged, no. of patients [13]: 6
- Excellent, % of patients [14]: (29%)
- Excellent, no. of patients [14]: 7^
- Improved, % of patients [14]: (33%)
- Improved, no. of patients [14]: 8^
- Unchanged, % of patients [14]: (33%)
- Unchanged, no. of patients [14]: 8^
- Worsened, % of patients [14]: (4%)
- Worsened, no. of patients [14]: 1
- Excellent, % of patients [15]: 29%
- Improved, % of patients [15]: 33%
- Excellent, no. of patients [16]: 5^
- Improved, no. of patients [16]: 3^
- Unchanged, no. of patients [16]: 6^
- Worsened, no. of patients [16]: 1
- Excellent, no. of patients [17]: 1^
- Improved, no. of patients [17]: 2^
- Unchanged, no. of patients [17]: 2^
- Excellent, no. of patients [18]: 1^
- Improved, no. of patients [18]: 3^
- Excellent, % of patients [19]: (20%)
- Excellent, no. of patients [19]: 1^
- Improved, % of patients [19]: (40%)
- Improved, no. of patients [19]: 2^
- Unchanged, % of patients [19]: (20%)
- Unchanged, no. of patients [19]: 1^
- Worsened, % of patients [19]: (20%)
- Worsened, no. of patients [19]: 1
- Worsened, no. of patients (60 mg prior to sleeping, Total 141): 6
- Excellent, % of patients [20]: (20%)
- Excellent, no. of patients [20]: 2^
- Improved, % of patients [20]: (50%)
- Improved, no. of patients [20]: 5^†
- Unchanged, % of patients [20]: (30%)
- Unchanged, no. of patients [20]: 3^¶
- Excellent, % of patients (60 mg prior to sleeping, Urinary frequency with UUI, 10 patients, listed as Loxoprofen): 20%
- Excellent, % of patients [21]: (44%)
- Excellent, no. of patients [21]: 4^¶
- Improved, % of patients [21]: (22%)
- Improved, no. of patients [21]: 2^
- Unchanged, % of patients [21]: (22%)
- Unchanged, no. of patients [21]: 2^¶
- Worsened, % of patients [21]: (11%)
- Worsened, no. of patients [21]: 1
- Excellent, % of patients (60 mg prior to sleeping, Urinary frequency without UUI, 9 patients, listed as Loxoprofen): 44%
- Excellent responses, % of patients [22]: 50%
- Excellent responses, patients/group size [22]: 4/8
- Excellent responses, % of patients [23]: 40%
- Excellent responses, patients/group size [23]: 17/43
- Excellent responses, % of patients [24]: 35%
- Excellent responses, patients/group size [24]: 23/65
- Excellent responses, % of patients [25]: 28%
- Excellent responses, patients/group size [25]: 7/25
- Excellent, % of patients [26]: (21%)
- Excellent, no. of patients [26]: 12*^
- Improved, % of patients [26]: (41%)
- Improved, no. of patients [26]: 23^†
- Unchanged, % of patients [26]: (34%)
- Unchanged, no. of patients [26]: 19^†
- Worsened, % of patients [26]: (4%)
- Worsened, no. of patients [26]: 2
- Excellent, % of patients (60 mg prior to sleeping, frequency at baseline 2 and 2-3, 56 patients, listed as Loxoprofen): 21%
- Excellent, % of patients [27]: (47%)
- Excellent, no. of patients [27]: 28^†
- Improved, % of patients [27]: (31%)
- Improved, no. of patients [27]: 18^†
- Unchanged, % of patients [27]: (17%)
- Unchanged, no. of patients [27]: 10^†
- Worsened, % of patients [27]: (5%)
- Worsened, no. of patients [27]: 3
- Excellent, % of patients [28]: (40%)
- Excellent, no. of patients [28]: 6^
- Improved, % of patients [28]: (40%)
- Improved, no. of patients [28]: 6^
- Unchanged, % of patients [28]: (20%)
- Unchanged, no. of patients [28]: 3^
- Excellent, % of patients [29]: (45%)
- Excellent, no. of patients [29]: 5^†
- Improved, % of patients [29]: (27%)
- Improved, no. of patients [29]: 3^
- Unchanged, % of patients [29]: (18%)
- Unchanged, no. of patients [29]: 2^
- Worsened, % of patients [29]: (5%)
- Worsened, no. of patients [29]: 1
- Excellent, % of patients [30]: (44%)
- Excellent, no. of patients [30]: 14
- Improved, % of patients [30]: (38%)
- Improved, no. of patients [30]: 12
- Unchanged, % of patients [30]: 19%
- Unchanged, no. of patients [30]: 6
- Worsened, % of patients [30]: 3%
- Worsened, no. of patients [30]: 1
- Excellent, no. of patients [31]: 13
- Improved, no. of patients [31]: 16
- Unchanged, % of patients [31]: 26%
- Unchanged, no. of patients [31]: 11
- Worsened, % of patients [31]: 5%
- Worsened, no. of patients [31]: 2
- Excellent, % of patients [32]: (39%)
- Excellent, no. of patients [32]: 30
- Improved, % of patients [32]: (37%)
- Improved, no. of patients [32]: 28
- Unchanged, % of patients [32]: 22%
- Unchanged, no. of patients [32]: 17
- Worsened, % of patients [32]: 5%
- Worsened, no. of patients [32]: 4
- Excellent effects, patients (60 mg prior to sleeping, patients who previously responded or were refractory to antidiuretic hormone): one of nine patients
- Side effects such as dry mouth, constipation and habituation (human, in vivo): does not produce side effects
- Quality of life (patients whose nocturia improved): noticeable improvements in their quality of life
- Effect on voiding power (patients with BOO): does not decrease voiding power
- Time to first voiding (some patients of the unchanged group): delayed by several hours
